Measured values taken from patent US12447153B2, “HER2 mutation inhibitors” (Array BioPharma Inc., priority 2021, dated 2025).

Columns and labels:
EGFR = EGFR (Homo sapiens (Human), UniProt P00533); assay: ErbB Enzyme Assay (HTRF KinEASE-TK), Assay 3; assay type: biochemical
EGFR wild type (EGFR WT) = EGFR wild type (EGFR WT) (Homo sapiens (Human), UniProt P00533); assay: Cellular Phosphorylation Assay, Assay 5 (EGF-stimulated EGFR phosphorylation, NIH 3T3 cells); assay type: cell-based
[1] = target: ErbB2 with Exon 20 YVMA insertion (HER2-YVMA) (Homo sapiens (Human), UniProt P04626, INS775YVMA); assay: Cellular Phosphorylation Assay, Assay 4 (constitutive ErbB2 phosphorylation, NIH 3T3 cells); assay type: cell-based
ErbB2 with Exon 20 YVMA insertion (HER2-YVMA), sequence (P04626 other isoform, or with tags, fused parts or gaps ins YVMA behind 775): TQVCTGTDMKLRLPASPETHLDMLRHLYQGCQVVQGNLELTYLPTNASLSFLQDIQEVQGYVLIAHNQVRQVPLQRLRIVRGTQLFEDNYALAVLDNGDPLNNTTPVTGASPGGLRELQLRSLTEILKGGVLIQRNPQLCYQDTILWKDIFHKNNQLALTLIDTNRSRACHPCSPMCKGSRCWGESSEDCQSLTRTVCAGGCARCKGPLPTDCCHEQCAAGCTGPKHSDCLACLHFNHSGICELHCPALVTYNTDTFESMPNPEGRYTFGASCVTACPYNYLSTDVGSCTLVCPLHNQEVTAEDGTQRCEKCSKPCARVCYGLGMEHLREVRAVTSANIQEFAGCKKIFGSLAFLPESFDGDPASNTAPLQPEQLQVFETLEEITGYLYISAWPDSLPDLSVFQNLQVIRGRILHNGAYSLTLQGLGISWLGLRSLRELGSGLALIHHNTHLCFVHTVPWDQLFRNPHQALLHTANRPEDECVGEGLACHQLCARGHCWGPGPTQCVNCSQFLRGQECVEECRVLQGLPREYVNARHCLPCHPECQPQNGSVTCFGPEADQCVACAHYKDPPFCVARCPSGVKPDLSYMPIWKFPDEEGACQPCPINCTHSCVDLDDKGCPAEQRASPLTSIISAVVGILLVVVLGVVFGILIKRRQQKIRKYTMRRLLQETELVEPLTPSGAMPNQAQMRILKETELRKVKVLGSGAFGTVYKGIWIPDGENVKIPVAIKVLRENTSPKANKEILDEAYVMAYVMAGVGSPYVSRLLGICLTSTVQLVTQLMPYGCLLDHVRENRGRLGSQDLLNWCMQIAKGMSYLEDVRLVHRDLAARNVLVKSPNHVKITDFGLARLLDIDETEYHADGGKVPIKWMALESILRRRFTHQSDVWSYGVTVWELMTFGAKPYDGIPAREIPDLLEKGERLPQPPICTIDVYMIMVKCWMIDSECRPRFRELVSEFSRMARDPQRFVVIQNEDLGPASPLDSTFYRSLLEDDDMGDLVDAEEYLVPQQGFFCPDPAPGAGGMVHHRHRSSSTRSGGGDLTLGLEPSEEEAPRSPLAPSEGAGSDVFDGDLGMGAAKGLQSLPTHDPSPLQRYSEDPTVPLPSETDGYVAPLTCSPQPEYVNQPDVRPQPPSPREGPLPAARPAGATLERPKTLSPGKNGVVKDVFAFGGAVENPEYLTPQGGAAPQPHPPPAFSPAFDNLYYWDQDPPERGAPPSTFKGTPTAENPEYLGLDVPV

ErbB2 WT = ErbB2 WT (Homo sapiens (Human), UniProt P04626); assay: ErbB Enzyme Assay (HTRF KinEASE-TK), Assay 2; assay type: biochemical
ErbB2 WT, sequence (P04626 23-1255): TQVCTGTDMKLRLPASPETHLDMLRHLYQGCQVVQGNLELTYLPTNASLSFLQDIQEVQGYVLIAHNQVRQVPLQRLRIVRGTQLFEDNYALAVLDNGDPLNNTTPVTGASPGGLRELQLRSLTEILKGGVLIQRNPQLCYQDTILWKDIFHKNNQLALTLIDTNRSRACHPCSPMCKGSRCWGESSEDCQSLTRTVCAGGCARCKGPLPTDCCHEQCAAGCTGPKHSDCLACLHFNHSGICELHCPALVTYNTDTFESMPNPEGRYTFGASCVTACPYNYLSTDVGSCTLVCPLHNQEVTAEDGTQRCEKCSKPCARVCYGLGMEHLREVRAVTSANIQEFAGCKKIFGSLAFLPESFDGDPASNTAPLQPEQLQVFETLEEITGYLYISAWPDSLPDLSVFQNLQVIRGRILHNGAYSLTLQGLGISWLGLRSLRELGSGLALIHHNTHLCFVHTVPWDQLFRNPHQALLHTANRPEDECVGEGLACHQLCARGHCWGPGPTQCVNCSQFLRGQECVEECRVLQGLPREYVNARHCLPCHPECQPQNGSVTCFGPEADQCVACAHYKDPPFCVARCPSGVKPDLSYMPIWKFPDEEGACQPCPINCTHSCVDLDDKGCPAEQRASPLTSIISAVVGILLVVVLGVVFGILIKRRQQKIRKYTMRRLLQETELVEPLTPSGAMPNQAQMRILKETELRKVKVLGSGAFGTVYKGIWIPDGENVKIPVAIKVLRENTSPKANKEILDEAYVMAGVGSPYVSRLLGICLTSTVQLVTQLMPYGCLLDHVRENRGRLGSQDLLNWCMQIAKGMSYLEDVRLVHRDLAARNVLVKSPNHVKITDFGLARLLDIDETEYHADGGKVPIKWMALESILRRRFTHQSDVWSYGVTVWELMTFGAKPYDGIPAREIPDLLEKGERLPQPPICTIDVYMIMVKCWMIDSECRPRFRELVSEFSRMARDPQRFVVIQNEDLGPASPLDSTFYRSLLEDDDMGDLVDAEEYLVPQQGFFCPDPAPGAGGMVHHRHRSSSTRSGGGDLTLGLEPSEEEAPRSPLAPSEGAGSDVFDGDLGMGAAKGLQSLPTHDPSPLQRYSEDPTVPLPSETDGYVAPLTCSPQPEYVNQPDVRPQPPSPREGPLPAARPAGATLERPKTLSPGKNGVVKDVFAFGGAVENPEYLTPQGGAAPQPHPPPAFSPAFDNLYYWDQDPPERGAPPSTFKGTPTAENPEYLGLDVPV

[2] = cellular EGFR WT phosphorylation, EGF-stimulated
[3] = cellular ErbB2 YVMA phosphorylation
[4] = EGF-stimulated EGFR WT phosphorylation

EGFR wild type (EGFR WT), sequence (P00533 25-1210): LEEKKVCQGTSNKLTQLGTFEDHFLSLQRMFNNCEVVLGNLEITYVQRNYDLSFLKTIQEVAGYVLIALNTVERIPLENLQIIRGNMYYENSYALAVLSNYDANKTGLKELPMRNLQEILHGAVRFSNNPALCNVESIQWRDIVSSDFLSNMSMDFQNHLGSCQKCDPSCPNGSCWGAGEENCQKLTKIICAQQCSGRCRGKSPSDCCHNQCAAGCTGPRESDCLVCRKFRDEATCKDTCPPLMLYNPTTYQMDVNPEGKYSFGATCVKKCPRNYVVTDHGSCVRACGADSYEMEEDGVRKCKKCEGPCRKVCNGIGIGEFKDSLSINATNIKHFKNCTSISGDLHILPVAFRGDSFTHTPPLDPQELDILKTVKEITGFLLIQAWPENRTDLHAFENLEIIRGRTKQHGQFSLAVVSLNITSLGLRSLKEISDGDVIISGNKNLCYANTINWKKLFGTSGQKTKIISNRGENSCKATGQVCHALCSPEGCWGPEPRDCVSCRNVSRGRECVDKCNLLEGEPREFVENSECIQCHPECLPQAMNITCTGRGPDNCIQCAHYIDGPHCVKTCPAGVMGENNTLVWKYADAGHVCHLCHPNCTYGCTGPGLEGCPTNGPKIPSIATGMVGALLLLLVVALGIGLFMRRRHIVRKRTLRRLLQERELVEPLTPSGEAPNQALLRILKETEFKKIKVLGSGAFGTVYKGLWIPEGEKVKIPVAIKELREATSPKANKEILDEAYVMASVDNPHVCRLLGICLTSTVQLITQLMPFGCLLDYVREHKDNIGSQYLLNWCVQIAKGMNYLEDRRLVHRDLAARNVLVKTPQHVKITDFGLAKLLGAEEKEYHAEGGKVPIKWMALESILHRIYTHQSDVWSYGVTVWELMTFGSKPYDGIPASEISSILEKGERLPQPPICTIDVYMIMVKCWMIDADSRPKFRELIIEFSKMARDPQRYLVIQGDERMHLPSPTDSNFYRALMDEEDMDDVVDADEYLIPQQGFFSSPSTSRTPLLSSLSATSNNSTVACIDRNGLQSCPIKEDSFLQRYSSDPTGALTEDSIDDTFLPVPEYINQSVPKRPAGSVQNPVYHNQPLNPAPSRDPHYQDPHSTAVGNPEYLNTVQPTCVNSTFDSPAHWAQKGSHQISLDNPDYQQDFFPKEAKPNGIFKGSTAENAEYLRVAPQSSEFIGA
EGFR, sequence (P00533 25-1210): as above

SMILES	IC50 (EGFR; EGFR enzyme assay)	IC50 (EGFR wild type (EGFR WT); [2])	IC50 [1, 3]	IC50 (ErbB2 WT; ErbB2 WT enzyme assay)	IC50 (EGFR; EGFR enzyme)	IC50 (EGFR wild type (EGFR WT); [4])	IC50 ([1]; ErbB2 YVMA phosphorylation)	IC50 (ErbB2 WT; ErbB2 WT enzyme)
C=CC(=O)N1CCN(c2ccc3ncnc(Nc4ccc(Oc5ccc6c(c5)ncn6C)c(C)c4F)c3n2)C[C@H]1C(C)C [Example 253]	≥ 10000 nM	≥ 5000 nM	31 nM	162 nM	–	–	–	–
C=CC(=O)N1CCN(c2ccc3ncnc(Nc4ccc(Oc5ccn6ncnc6c5)c(Cl)c4F)c3n2)C[C@H]1C(F)(F)F [Example 85, (S)-1-(4-(4-((4-([1,2,4]triazolo[1,5-a]pyridin-7-yloxy)-3-chloro-2-fluorophenyl)amino)pyrido[3,2-d]pyrimidin-6-yl)-2-(trifluoromethyl)piperazin-1-yl)prop-2-en-1-one]	–	–	–	–	205 nM	446 nM	25 nM	3.1 nM
C=CC(=O)N1CCN(c2ccc3ncnc(Nc4ccc(Oc5cnc6c(c5)ncn6C)c(C)c4F)c3n2)CC12CC2 [Example 450]	480 nM	1160 nM	9.8 nM	67.3 nM	–	–	–	–
CCC(=O)N1CC([C@H](C)c2ccc3ncnc(Nc4ccc(Oc5ccn6ncnc6c5)c(C)c4F)c3n2)C1 (racemic) [Example 301]	2250 nM	2550 nM	51.1 nM	94.8 nM	–	–	–	–
C=CC(=O)N1C[C@H]2CC[C@@H](C1)[C@@H]2c1ccc2ncnc(Nc3ccc(Oc4ccn5ncnc5c4)c(C)c3F)c2n1 [Example 223, 1-((1R,5S,8r)-8-(4-((4-([1,2,4]triazolo[1,5-a]pyridin-7-yloxy)-2-fluoro-3-methylphenyl)amino)pyrido[3,2-d]pyrimidin-6-yl)-3-azabicyclo[3.2.1]octan-3-yl)prop-2-en-1-one]	–	–	–	–	1960 nM	≥ 5000 nM	145 nM	48.9 nM
C=CC(=O)N1C[C@H]2C[C@@H]1CN2c1ccc2ncnc(Nc3cc(C)c(Oc4ccn5ncnc5c4)cc3F)c2n1 [Example 78, 1-((1R,4R)-5-(4-((4-([1,2,4]triazolo[1,5-a]pyridin-7-yloxy)-2-fluoro-5-methylphenyl)amino)pyrido[3,2-d]pyrimidin-6-yl)-2,5-diazabicyclo[2.2.1]heptan-2-yl)prop-2-en-1-one]	–	–	–	–	≥ 10000 nM	≥ 5000 nM	145 nM	448 nM
C=CC(=O)N1C[C@@H]2CC[C@H]1CN2c1ccc2ncnc(Nc3cc(C)c(Oc4cnc5c(c4)ncn5C)cc3F)c2n1 [Example 324]	419 nM	276 nM	10.2 nM	50.8 nM	–	–	–	–
C=CC(=O)N1CCN(c2ccc3ncnc(Nc4ccc(Oc5ccn6ncnc6c5)c(C)c4F)c3n2)C[C@@H]1C1CC1 (racemic) [Example 163, rac-1-(4-(4-((4-([1,2,4]triazolo[1,5-a]pyridin-7-yloxy)-2-fluoro-3-methylphenyl)amino)pyrido[3,2-d]pyrimidin-6-yl)-2-cyclopropylpiperazin-1-yl)prop-2-en-1-one]	–	–	–	–	8790 nM	1510 nM	18.8 nM	42.3 nM
C=CC(=O)N1C[C@H]2CC[C@@H](C1)[C@@H]2c1ccc2ncnc(Nc3ccc(Oc4ccn5ncnc5c4)c(C)c3)c2n1 [Example 221, 1-((1R,5S,8r)-8-(4-((4-([1,2,4]triazolo[1,5-a]pyridin-7-yloxy)-3-methylphenyl)amino)pyrido[3,2-d]pyrimidin-6-yl)-3-azabicyclo[3.2.1]octan-3-yl)prop-2-en-1-one]	–	–	–	–	2690 nM	≥ 5000 nM	78 nM	28.5 nM
C=CC(=O)N1CCCC[C@H](c2ccc3ncnc(Nc4ccc(Oc5ccc6c(c5)ncn6C)c(C)c4)c3n2)C1 (single isomer, unassigned) [Example 172]	–	–	–	–	720 nM	1960 nM	13.9 nM	5.2 nM
C=CC(=O)N1[C@@H]2CC[C@H]1C[C@@H](c1ccc3ncnc(Nc4cc(C)c(Oc5cnc6c(c5)ncn6C)cc4F)c3n1)C2 [Example 226, 1-((1R,3r,5S)-3-(4-((2-fluoro-5-methyl-4-((3-methyl-3H-imidazo[4,5-b]pyridin-6-yl)oxy)phenyl)amino)pyrido[3,2-d]pyrimidin-6-yl)-8-azabicyclo[3.2.1]octan-8-yl)prop-2-en-1-one]	–	–	–	–	≥ 10000 nM	≥ 5000 nM	37.5 nM	310 nM
C=CC(=O)N1CC[C@@H]2C[C@H]1CN2c1ccc2ncnc(Nc3ccc(Oc4cnc5c(c4)ncn5C)c(C)c3F)c2n1 [Example 317]	268 nM	117 nM	6.4 nM	44 nM	–	–	–	–
C=C(F)C(=O)N1CCN(c2ccc3ncnc(Nc4ccc(Oc5ccn6ncnc6c5)c(C)c4F)c3n2)CC1(C)C [Example 187, 1-(4-(4-((4-([1,2,4]triazolo[1,5-a]pyridin-7-yloxy)-2-fluoro-3-methylphenyl)amino)pyrido[3,2-d]pyrimidin-6-yl)-2,2-dimethylpiperazin-1-yl)-2-fluoroprop-2-en-1-one]	–	–	–	–	≥ 10000 nM	≥ 5000 nM	273 nM	100 nM
C=CC(=O)N1C2CCC1CC(c1ccc3ncnc(Nc4ccc(Oc5ccc6c(c5)ncn6C)c(C)c4)c3n1)C2 (stereo not shown) [Example 122, 1-(3-(4-((3-methyl-4-((1-methyl-1H-benzo[d]imidazol-5-yl)oxy)phenyl)amino)pyrido[3,2-d]pyrimidin-6-yl)-8-azabicyclo[3.2.1]octan-8-yl)prop-2-en-1-one]	–	–	–	–	3880 nM	≥ 5000 nM	13 nM	9.3 nM
CC#CC(=O)N1CCN(c2ccc3ncnc(Nc4ccc(Oc5ccn6ncnc6c5)c(C)c4F)c3n2)CC12CC2 [Example 182, 1-(7-(4-((4-([1,2,4]triazolo[1,5-a]pyridin-7-yloxy)-2-fluoro-3-methylphenyl)amino)pyrido[3,2-d]pyrimidin-6-yl)-4,7-diazaspiro[2.5]octan-4-yl)but-2-yn-1-one]	–	–	–	–	6140 nM	2730 nM	76.1 nM	27.3 nM
C=CC(=O)N1CCN(c2ccc3ncnc(Nc4ccc(Oc5cc(F)c6c(c5)ncn6C)c(C)c4)c3n2)CC12CC2 [Example 281]	102 nM	129 nM	10.9 nM	10.4 nM	–	–	–	–
C=CC(=O)N1CCN(c2ccc3ncnc(Nc4cc(C)c(Oc5ccn6ncnc6c5)cc4F)c3n2)C[C@H]1COC [Example 347]	772 nM	380 nM	8.2 nM	38 nM	–	–	–	–
C=CC(=O)N1CC[C@H]2C[C@@H]1CN2c1ccc2ncnc(Nc3ccc(Oc4ccc5c(c4)ncn5C)c(C)c3F)c2n1 [Example 67, 1-((1R,5S)-6-(4-((2-fluoro-3-methyl-4-((1-methyl-1H-benzo[d]imidazol-5-yl)oxy)phenyl)amino)pyrido[3,2-d]pyrimidin-6-yl)-2,6-diazabicyclo[3.2.1]octan-2-yl)prop-2-en-1-one]	–	–	–	–	≥ 10000 nM	≥ 5000 nM	35.8 nM	422 nM
CC#CC(=O)N1CCN(c2ccc3ncnc(Nc4ccc(Oc5ccn6ncnc6c5)c(Cl)c4F)c3n2)C[C@@H]1C(F)(F)F [Example 183, (R)-1-(4-(4-((4-([1,2,4]triazolo[1,5-a]pyridin-7-yloxy)-3-chloro-2-fluorophenyl)amino)pyrido[3,2-d]pyrimidin-6-yl)-2-(trifluoromethyl)piperazin-1-yl)but-2-yn-1-one]	–	–	–	–	73.3 nM	79.3 nM	4.4 nM	6.2 nM
